The values that follow come from patent US20260131007A1, “Mannose 6-Phosphate Receptor Binding Compounds for the Degradation of Extracellular Proteins” (Avilar Therapeutics, Inc., priority 2023, published 2026).

Structures can show the parent of a compound that is named as a salt.

This experiment has as its target T1, Insulin-like growth factor 2 receptor (IGF-1IR, cation-independent mannose-6-phosphate receptor, CI-MPR; hIGF-IIR) (Homo sapiens, UniProt P11717).
T1 construct: purchased R&D Systems 6418-GR
The experiment in a line: HTRF-based ternary complex inhibition assay for relative affinity of IGF-IIR ligands. The following applies: competition with MTAC probe for His-tagged hIGF-IIR; biotinylated IgG1; apparent binding affinity; read-out: TCF INH (HTRF) IC50. The protocol:
The apparent binding affinity of Insulin-like growth factor 2 receptor (IGF-1IR, also called the cation- independent mannose-6-phosphate receptor (CI-MPR)) ligands was determined indirectly by competing with a probe molecule for binding to IGF-1IR. The probe is a Mannose 6-Phosphate Ligand (“Ligand”) and binds to hIGF-IIR and IgG1 to form a hIGF-IIR: Ligand: IgG1 ternary complex. The ternary complex was detected by an HTRF readout. The ternary complex is disrupted in the presence of IGF-1IR ligand, resulting in decreased HTRF signal. IGF-1IR ligands of 3-fold dilution series were prepared from 10 mM DMSO stock on a 384-well LDV microplate using Echo Acoustic Liquid Handler (Beckman Coulter Life Sciences) followed by transfer of 600 nL of the solutions to an OptiPlate 384-well microplate (PerkinElmer, 6007290). Manose-6-phosphate (M6P; J&K, 530168) and glucose-6-phosphate (G6P; Sigma, V900924) were prepared from 100 mM stock in the same manner and were used as positive and negative controls, respectively. The wells used as 0% and 100% inhibition controls were prepared by adding 600 nL DMSO. 20 nL of 50 μM MTAC probe was transferred to all wells except the wells used as 100% Inhibition control. 9.4 μL working solution containing 65.1 nM of Biotinylated-IgG1 (Viva 20211108) and 65.1 nM of His-tagged hIGF-IIR (R&D Systems, 6418-GR) in assay buffer 50 mM Tris, pH 7.5, 150 mM NaCl, 50 mM CaCl2, 0.01% Tween-20 was transferred to all wells. The plate was incubated at room temperature for 60 min with gentle shaking to allow molecular interaction to reach equilibration. Following this, 10 μL of HTRF detection solution containing 15 nM Streptavidin-d2 (PerkinElmer, 610SADLA) and 0.7 nM MAb Anti 6HIS—Tb cryptate (PerkinElmer, 61HISTLA) in PPI Terbium detection buffer (PerkinElmer, 61DB10RDF) was added. The assay plate was incubated at room temperature with gentle shaking for 60 min to allow HTRF signal to develop. The plate was gently spun on a centrifuge then placed on a EnVision plate reader (Perkin Elmer, EnVision 2104) to read fluorescence ratio of 665 nm/615 nm. Percent inhibitions were calculated with this equation: % I=100* [1−(X−100% I/(0% I−100% I)] where X is the […] in the presence of IGF-1IR ligand. The apparent binding affinity (presented as IC50) was calculated by fitting the % inhibition data with a non-linear 4-parameter inhibition equation using GraphPad Prism (GraphPad Software, LLC; version 9.4.1).
For orientation: Time-resolved FRET reads energy transfer from a long-lived donor to a nearby acceptor.
Broadly, the IC50 is the concentration that gives 50% inhibition. For `CS(=N)(=O)CC[C@H]1O[C@H](O)[C@@H](O)[C@@H](O)[C@@H]1O` (stereo partly drawn) [Compound A1, imino(methyl) (2-((2R,3S,4S,5S,6S)-3,4,5,6-tetrahydroxytetrahydro-2H-pyran-2-yl)ethyl)-16-sulfanone], the IC50 was < 10 µM.
With `NC[C@H]1O[C@H](Oc2ccccc2)[C@@H](O)[C@@H](O)[C@@H]1O` [Compound A2, (2R,3S,4S,5S,6R)-2-(aminomethyl)-6-phenoxytetrahydro-2H-pyran-3,4,5-triol], the half-inhibitory concentration (IC50) fell in the range of 10 to 100 µM.
Take `N#CNC(=O)CC[C@H]1O[C@H](Oc2ccccc2)[C@@H](O)[C@@H](O)[C@@H]1O` [Compound A3, N-cyano-3-((2R,3S,4S,5S,6R)-3,4,5-trihydroxy-6-phenoxytetrahydro-2H-pyran-2-yl)propanamide]: the IC50 is 10 to 100 µM.
In the case of `CC(=O)NS(=O)(=O)OC[C@H]1O[C@H](Oc2ccccc2)[C@@H](O)[C@@H](O)[C@@H]1O` [Compound A4, ((2R,3S,4S,5S,6R)-3,4,5-trihydroxy-6-phenoxytetrahydro-2H-pyran-2-yl)methyl acetylsulfamate], the half-inhibitory concentration (IC50) was 100 to 300 µM.
As for `COC(=O)c1ccc(O[C@H]2O[C@H](CNc3c(O)c(=O)c3=O)[C@@H](O)[C@H](O)[C@@H]2O)cc1` [Compound A7, methyl 4-(((3S,4S,5S,6R)-3,4,5-trihydroxy-6-(((2-hydroxy-3,4-dioxocyclobut-1-en-1-yl)amino)methyl)tetrahydro-2H-pyran-2-yl)oxy)benzoate], the figure is 100 to 300 µM; as for `CO[C@@H]1O[C@H](CCS(=O)(=O)Nc2ncccn2)[C@@H](O)[C@H](O)[C@@H]1O` [Compound A8, N-(pyrimidin-2-yl)-2-((2R,3S,4S,5S,6R)-3,4,5-trihydroxy-6-methoxytetrahydro-2H-pyran-2-yl)ethane-1-sulfonamide], 10 to 100 µM.
The result for `CO[C@H]1O[C@H](CCS(=O)(=O)Nc2ncccn2)[C@@H](O)[C@H](O)[C@@H]1O` [Compound A9, N-(pyrimidin-2-yl)-2-((2R,3S,4S,5S,6S)-3,4,5-trihydroxy-6-methoxytetrahydro-2H-pyran-2-yl)ethane-1-sulfonamide] reads 100 to 300 µM.
The result for `O=C(NS(=O)(=O)CC[C@H]1O[C@H](O)[C@@H](O)[C@@H](O)[C@@H]1O)c1ccno1` [Compound A11, N-((2-((2R,3S,4S,5S,6S)-3,4,5,6-tetrahydroxytetrahydro-2H-pyran-2-yl)ethyl)sulfonyl)isoxazole-5-carboxamide] reads 10 to 100 µM; that for `O=C(NS(=O)(=O)CC[C@H]1O[C@H](O)[C@@H](O)[C@@H](O)[C@@H]1O)c1ccccc1` [Compound A12, N-((2-((2R,3S,4S,5S,6S)-3,4,5,6-tetrahydroxytetrahydro-2H-pyran-2-yl)ethyl)sulfonyl)benzamide], 100 to 300 µM; that for `O=P(O)(O)CC[C@H]1OC(CCc2ccccc2)[C@@H](O)[C@@H](O)[C@@H]1O` (stereo partly drawn) [Compound A13, (2-((2R,3S,4R,5S)-3,4,5-trihydroxy-6-phenethyltetrahydro-2H-pyran-2-yl)ethyl)phosphonic acid], < 10 µM.
Consider `C#CCCOC1O[C@H](CCS(=O)(=O)Nc2ncccn2)[C@@H](O)[C@H](O)[C@@H]1O` (stereo partly drawn) [Compound A14, 2-((2R,3S,4S,5S)-6-(but-3-yn-1-yloxy)-3,4,5-trihydroxytetrahydro-2H-pyran-2-yl)-N-(pyrimidin-2-yl)ethane-1-sulfonamide], for which the IC50 fell in the range of 100 to 300 µM.
For `O=P(O)(O)CC[C@H]1OC(c2cc3c(cc2O)Cc2ccccc2-3)[C@@H](O)[C@@H](O)[C@@H]1O` (stereo partly drawn) [Compound A15, (2-((2R,3S,4S,5S)-3,4,5-trihydroxy-6-(2-hydroxy-9H-fluoren-3-yl)tetrahydro-2H-pyran-2-yl)ethyl)phosphonic acid], the IC50 was < 10 µM.
Regarding `O=P(O)(O)CC[C@H]1OC(C#Cc2ccccc2)[C@@H](O)[C@@H](O)[C@@H]1O` (stereo partly drawn) [Compound A16, (2-((2R,3S,4S,5S)-3,4,5-trihydroxy-6-(phenylethynyl)tetrahydro-2H-pyran-2-yl)ethyl)phosphonic acid], the IC50 was < 10 µM.
Take `O=P(O)(O)CC[C@H]1O[C@H](c2cn(CCc3ccccc3)nn2)[C@@H](O)[C@@H](O)[C@@H]1O` [Compound A17, (2-((2R,3S,4S,5S,6R)-3,4,5-trihydroxy-6-(1-phenethyl-1H-1,2,3-triazol-4-yl)tetrahydro-2H-pyran-2-yl)ethyl)phosphonic acid]: the IC50 was < 10 µM.
The result for `C[Si](C)(C)C#C[C@H]1O[C@H](CCP(=O)(O)O)[C@@H](O)[C@H](O)[C@@H]1O` [Compound A18, (2-((2R,3S,4S,5S,6R)-3,4,5-trihydroxy-6-((trimethylsilyl)ethynyl)tetrahydro-2H-pyran-2-yl)ethyl)phosphonic acid] reads < 10 µM; that for `O=P(O)(O)CC[C@H]1O[C@H](Oc2ccc3c(c2)Cc2ccccc2-3)[C@@H](O)[C@@H](O)[C@@H]1O` [Compound A19, (2-((2R,3S,4S,5S,6R)-6-((9H-fluoren-2-yl)oxy)-3,4,5-trihydroxytetrahydro-2H-pyran-2-yl)ethyl)phosphonic acid], < 10 µM; that for `C#C[C@H]1O[C@H](CCP(=O)(O)O)[C@@H](O)[C@H](O)[C@@H]1O` [Compound A20, (2-((2R,3S,4S,5S,6R)-6-ethynyl-3,4,5-trihydroxytetrahydro-2H-pyran-2-yl)ethyl)phosphonic acid], < 10 µM.
As for `O=P(O)(O)CC[C@H]1O[C@H](/C=C/c2ccccc2)[C@@H](O)[C@@H](O)[C@@H]1O` [Compound A21, (2-((2R,3S,4S,5S,6R)-3,4,5-trihydroxy-6-((E)-styryl)tetrahydro-2H-pyran-2-yl)ethyl)phosphonic acid], the figure is 10 to 100 µM; as for `O=P(O)(O)CC[C@H]1O[C@H](Oc2ccc3c(c2)Cc2cc(O)ccc2-3)[C@@H](O)[C@@H](O)[C@@H]1O` [Compound A22, (2-((2R,3S,4S,5S,6R)-3,4,5-trihydroxy-6-((7-hydroxy-9H-fluoren-2-yl)oxy)tetrahydro-2H-pyran-2-yl)ethyl)phosphonic acid], < 10 µM; as for `NC[C@H]1O[C@H](O)[C@@H](O)[C@@H](O)[C@@H]1O` [Compound A41, (2S,3S,4S,5S,6R)-6-(aminomethyl)tetrahydro-2H-pyran-2,3,4,5-tetraol hydrochloride], 10 to 100 µM.
As to `O=P(O)(CC[C@H]1O[C@H](Oc2ccccc2)[C@@H](O)[C@@H](O)[C@@H]1O)Cc1c(F)cccc1F` [Compound A42, (2,6-difluorobenzyl) (2-((2R,3S,4S,5S,6R)-3,4,5-trihydroxy-6-phenoxytetrahydro-2H-pyran-2-yl)ethyl)phosphinic acid], the IC50 was < 10 µM.
Consider `O=P(O)(O)C1CC1[C@H]1O[C@H](Oc2ccccc2)[C@@H](O)[C@@H](O)[C@@H]1O` (stereo partly drawn) [Compound A43, [2-[(2R,3S,4S,5S,6R)-3,4,5-trihydroxy-6-phenoxy-tetrahydropyran-2-yl]cyclopropyl]phosphonic acid], for which the IC50 was in the range of 10 to 100 µM.
Take `CP(=O)(O)CC[C@H]1O[C@H](Oc2ccccc2)[C@@H](O)[C@@H](O)[C@@H]1O` [Compound A44, methyl(2-((2R,3S,4S,5S,6R)-3,4,5-trihydroxy-6-phenoxytetrahydro-2H-pyran-2-yl)ethyl)phosphinic acid]: the IC50 was in the range of 10 to 100 µM.
Regarding `COCP(=O)(O)CC[C@H]1O[C@H](Oc2ccccc2)[C@@H](O)[C@@H](O)[C@@H]1O` [Compound A45, methoxymethyl-[2-[(2R,3S,4S,5S,6R)-3,4,5-trihydroxy-6-phenoxy-tetrahydropyran-2-yl]ethyl]phosphinic acid], the IC50 is 10 to 100 µM.
Regarding `O=P(O)(CC[C@H]1O[C@H](Oc2ccccc2)[C@@H](O)[C@@H](O)[C@@H]1O)Cc1ccccc1O` [Compound A46, (2-hydroxybenzyl) (2-((2R,3S,4S,5S,6R)-3,4,5-trihydroxy-6-phenoxytetrahydro-2H-pyran-2-yl)ethyl)phosphinic acid], the IC50 is < 10 µM.
Take `O=P(O)(CC[C@H]1O[C@H](OC2CCCCC2)[C@@H](O)[C@@H](O)[C@@H]1O)Cc1ccccc1O` [Compound A47, 2-[(2R,3S,4S,5S,6S)-6-(cyclohexoxy)-3,4,5-trihydroxy-tetrahydropyran-2-yl]ethyl-[(2-hydroxyphenyl)methyl]phosphinic acid]: the half-maximal inhibitory concentration (IC50) fell in the range of 10 to 100 µM.
